# Measured values as given in paper PMC12019880 (Frontiers in Pharmacology, 2025).
# Values joined by “and” are separate entries in the source; they are usually repeats but may differ in a detail not shown here. Equal entries are not always repeated.
# Columns and labels:
# [1] = test system: Na^+ current of larger diameter DRG neurons; assay type: cell-based, mouse
# [2] = test system: TTX-S Na^+ currents from adult mouse DRG neurons
# hNav1.7 = hNav1.7 (Homo sapiens, UniProt Q15858); assay: automated patch-clamp, hNav1.7 stably expressed in CHO cells; assay type: cell-based
# hNav1.7, sequence (Q15858 whole entry): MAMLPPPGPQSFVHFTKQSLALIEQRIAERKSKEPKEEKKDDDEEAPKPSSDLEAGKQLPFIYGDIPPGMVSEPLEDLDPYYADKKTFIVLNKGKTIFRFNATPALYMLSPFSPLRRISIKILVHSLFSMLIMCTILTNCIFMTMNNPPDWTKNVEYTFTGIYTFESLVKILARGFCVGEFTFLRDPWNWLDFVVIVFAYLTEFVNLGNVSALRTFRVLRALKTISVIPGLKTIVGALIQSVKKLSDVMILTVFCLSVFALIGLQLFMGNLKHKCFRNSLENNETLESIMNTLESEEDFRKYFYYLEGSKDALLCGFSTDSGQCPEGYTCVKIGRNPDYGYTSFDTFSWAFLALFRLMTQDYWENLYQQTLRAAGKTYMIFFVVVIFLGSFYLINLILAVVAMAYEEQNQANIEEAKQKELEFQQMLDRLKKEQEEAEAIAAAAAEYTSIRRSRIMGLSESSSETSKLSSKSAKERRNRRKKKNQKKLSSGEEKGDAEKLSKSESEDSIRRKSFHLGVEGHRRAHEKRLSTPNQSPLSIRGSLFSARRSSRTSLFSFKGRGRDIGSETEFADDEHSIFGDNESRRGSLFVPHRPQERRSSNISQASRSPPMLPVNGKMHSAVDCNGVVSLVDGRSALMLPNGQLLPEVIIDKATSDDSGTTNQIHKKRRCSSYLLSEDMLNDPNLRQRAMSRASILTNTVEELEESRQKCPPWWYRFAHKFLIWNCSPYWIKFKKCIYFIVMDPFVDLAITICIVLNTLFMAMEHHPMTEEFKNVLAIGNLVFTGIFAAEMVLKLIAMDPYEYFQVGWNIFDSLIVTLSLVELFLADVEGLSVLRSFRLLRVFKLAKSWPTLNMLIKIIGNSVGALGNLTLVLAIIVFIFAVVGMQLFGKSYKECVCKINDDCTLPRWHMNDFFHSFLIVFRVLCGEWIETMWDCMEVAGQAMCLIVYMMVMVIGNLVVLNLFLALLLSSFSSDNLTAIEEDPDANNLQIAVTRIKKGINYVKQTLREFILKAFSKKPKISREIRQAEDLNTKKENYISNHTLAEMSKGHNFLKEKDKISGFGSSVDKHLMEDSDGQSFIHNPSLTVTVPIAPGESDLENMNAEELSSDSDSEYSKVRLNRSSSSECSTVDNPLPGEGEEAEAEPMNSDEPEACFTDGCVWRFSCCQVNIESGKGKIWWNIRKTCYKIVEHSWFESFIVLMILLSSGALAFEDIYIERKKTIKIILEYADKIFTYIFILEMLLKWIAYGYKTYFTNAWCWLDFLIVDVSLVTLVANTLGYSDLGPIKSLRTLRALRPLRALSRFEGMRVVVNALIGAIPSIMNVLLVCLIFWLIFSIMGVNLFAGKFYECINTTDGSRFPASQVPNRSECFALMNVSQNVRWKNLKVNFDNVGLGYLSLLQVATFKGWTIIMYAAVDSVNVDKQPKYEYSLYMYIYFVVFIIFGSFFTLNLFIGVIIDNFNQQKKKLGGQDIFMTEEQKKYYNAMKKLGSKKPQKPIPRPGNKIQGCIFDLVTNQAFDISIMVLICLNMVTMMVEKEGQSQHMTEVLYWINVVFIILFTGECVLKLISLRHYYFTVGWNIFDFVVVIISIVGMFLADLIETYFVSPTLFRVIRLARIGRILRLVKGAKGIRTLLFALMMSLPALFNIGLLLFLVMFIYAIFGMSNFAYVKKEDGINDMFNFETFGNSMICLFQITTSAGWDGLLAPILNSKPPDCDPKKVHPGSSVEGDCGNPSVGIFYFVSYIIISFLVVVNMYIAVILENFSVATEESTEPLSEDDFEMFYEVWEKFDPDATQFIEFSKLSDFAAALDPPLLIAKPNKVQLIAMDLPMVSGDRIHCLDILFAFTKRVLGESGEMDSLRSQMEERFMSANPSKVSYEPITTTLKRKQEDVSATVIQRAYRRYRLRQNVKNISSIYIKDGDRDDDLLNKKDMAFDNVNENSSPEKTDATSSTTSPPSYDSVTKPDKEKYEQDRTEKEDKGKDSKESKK
# Protocol: (§1) CHO cells stably expressing hNav1.7 were cultured in Dulbecco’s Modified Eagle’s Medium (DMEM) supplemented with 10% foetal calf serum, 1 mM pyruvic acid, 4 mM glutamine, 10 U/mL penicillin and 10 μg/mL streptomycin (Gibco, Grand Island, NY), and incubated at 37°C in a 5% CO2 atmosphere. For electrophysiological recordings, cells were detached with trypsin and floating single cells were diluted (∼300,000 cells/mL) in medium containing (in mM): 4 KCl, 140 NaCl, five glucose, 10 2-[4-(2-hydroxyethyl)piperazin-1-yl]ethanesulfonic acid (HEPES, pH 7.4, osmolarity 290 mOsm). Similar culturing conditions were used for HEK-293 cell lines expressing hNav1.1, hNav1.2, hNav1.3, hNav1.5 and hNav1.6 channels. The plasmid pcDNA3.1+/C-(K)-DYK (Genscript, Piscataway, New Jersey, USA) was used for transient expression of mNav1.7 in HEK-293T cells using the Maxcyte electroporation system.
# (§2) Chips with single-hole and high-resistance 5.14 ± 0.02 MΩ (n = 384) were used for HEK-293 cell recordings. Only cells with seal resistance above 500 MΩ and Rs values <15 MΩ were kept for analyses. All Rs values were compensated at 90%. Voltage pulses and whole-cell recordings were achieved using the PatchControl384 v1.5.3 software (Nanion Technologies, Munich, Germany) and the Biomek v1.0 interface (Beckman Coulter, Villepinte, France). Prior to recordings, dissociated cells were shaken at 60 rpm in a cell hotel reservoir at 10°C. After cell catching, sealing, whole-cell formation, liquid application, recording, and data acquisition were all performed sequentially and automatically. The intracellular solution contained (in mM): 10 KCl, 110 kF, 10 NaCl, 1 MgCl2, 1 CaCl2, 10 Ethylene Glycol Tetraacetic Acid (EGTA) and 10 HEPES (pH 7.2, osmolarity 280 mOsm), and the extracellular solution (in mM): 140 NaCl, 4 KCl, 2 CaCl2, 1 MgCl2, five glucose, and 10 HEPES (pH 7.4, osmolarity 298 mOsm). Whole-cell experiments were done at −100 mV holding potential, while currents triggered at 0 mV test potential were sampled at 10 kHz (sweeps every 8 s). […]
# mNav1.7 = biological target: T1, mNav1.7 (Mus musculus, UniProt Q62205); assay: automated patch-clamp, mNav1.7 electroporated in HEK293 cells; assay type: cell-based; details: mNav1.7 (Figure 4b)
# T1 construct: DYK (FLAG) tag of vector pcDNA3.1+/C-(K)-DYK (C); host or cells: HEK-293T cells, Maxcyte electroporation
# T1 sequence (Q62205 whole entry): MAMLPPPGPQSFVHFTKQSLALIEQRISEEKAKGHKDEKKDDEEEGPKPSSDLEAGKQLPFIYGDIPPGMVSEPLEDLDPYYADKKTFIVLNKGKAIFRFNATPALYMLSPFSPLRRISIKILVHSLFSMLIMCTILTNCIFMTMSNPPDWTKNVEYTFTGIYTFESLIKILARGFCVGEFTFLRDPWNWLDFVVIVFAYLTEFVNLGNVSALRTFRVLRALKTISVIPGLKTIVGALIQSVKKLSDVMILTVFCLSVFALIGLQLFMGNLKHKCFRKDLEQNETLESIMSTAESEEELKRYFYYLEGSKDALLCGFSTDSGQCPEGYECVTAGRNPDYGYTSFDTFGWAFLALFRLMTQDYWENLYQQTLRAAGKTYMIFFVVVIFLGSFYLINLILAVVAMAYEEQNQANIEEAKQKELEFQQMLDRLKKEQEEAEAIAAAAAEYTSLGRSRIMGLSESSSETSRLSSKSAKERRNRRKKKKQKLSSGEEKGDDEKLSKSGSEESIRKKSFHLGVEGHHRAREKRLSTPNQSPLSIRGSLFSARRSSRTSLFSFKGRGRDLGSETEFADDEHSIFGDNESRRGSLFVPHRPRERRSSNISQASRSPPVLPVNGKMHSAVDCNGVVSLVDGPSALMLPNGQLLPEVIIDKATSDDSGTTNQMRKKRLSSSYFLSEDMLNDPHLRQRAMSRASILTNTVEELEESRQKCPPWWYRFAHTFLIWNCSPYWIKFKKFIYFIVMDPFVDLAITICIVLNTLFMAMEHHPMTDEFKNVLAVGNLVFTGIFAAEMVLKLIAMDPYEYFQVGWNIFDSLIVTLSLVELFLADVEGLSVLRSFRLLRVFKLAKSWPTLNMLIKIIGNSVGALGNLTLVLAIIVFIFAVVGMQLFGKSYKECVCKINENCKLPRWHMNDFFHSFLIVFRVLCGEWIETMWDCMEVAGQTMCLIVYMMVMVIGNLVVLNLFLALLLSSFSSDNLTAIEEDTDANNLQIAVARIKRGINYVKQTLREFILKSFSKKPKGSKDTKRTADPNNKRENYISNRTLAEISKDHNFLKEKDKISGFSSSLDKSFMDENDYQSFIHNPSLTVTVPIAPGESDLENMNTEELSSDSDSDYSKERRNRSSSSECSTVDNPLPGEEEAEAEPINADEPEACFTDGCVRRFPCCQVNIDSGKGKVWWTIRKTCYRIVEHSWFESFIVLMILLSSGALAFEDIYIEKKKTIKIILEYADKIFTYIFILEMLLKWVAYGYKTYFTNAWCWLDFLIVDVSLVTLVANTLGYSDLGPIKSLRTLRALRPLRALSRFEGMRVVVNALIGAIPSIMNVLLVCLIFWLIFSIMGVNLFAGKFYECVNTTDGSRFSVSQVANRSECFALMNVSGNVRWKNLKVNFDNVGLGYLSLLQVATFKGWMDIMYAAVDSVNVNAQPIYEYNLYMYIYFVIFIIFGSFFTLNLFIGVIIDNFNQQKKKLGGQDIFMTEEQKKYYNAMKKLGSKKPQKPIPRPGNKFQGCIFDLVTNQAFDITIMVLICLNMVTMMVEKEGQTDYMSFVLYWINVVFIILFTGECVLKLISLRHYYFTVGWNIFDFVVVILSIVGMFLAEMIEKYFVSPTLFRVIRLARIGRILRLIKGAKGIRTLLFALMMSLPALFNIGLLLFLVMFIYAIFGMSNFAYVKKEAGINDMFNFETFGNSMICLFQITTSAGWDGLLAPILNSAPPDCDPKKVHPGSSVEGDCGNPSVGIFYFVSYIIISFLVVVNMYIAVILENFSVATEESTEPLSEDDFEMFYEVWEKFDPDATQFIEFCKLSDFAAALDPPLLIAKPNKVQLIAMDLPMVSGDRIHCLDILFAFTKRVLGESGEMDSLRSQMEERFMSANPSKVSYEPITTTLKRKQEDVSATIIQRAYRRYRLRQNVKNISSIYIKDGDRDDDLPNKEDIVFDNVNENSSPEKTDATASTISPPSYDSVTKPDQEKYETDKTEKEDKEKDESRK
# Protocol: as §1
# (§3) Chips with single-hole and high-resistance 5.14 ± 0.02 MΩ (n = 384) were used for HEK-293 cell recordings. Only cells with seal resistance above 500 MΩ and Rs values <15 MΩ were kept for analyses. All Rs values were compensated at 90%. Voltage pulses and whole-cell recordings were achieved using the PatchControl384 v1.5.3 software (Nanion Technologies, Munich, Germany) and the Biomek v1.0 interface (Beckman Coulter, Villepinte, France). […]
# hNav1.4 = assay: automated patch-clamp, hNav1.4; assay type: cell-based, human
# From the text: as §2, with “s). Compounds were prepared at various concentrations in the extracellular solution supplemented with 0.3% BSA and distributed in 384-well plates according to a pre-designed template.” for “s).”
# hNav1.5 = assay: automated patch-clamp, hNav1.5; assay type: cell-based, human; details: up to 3,300 nM (Figure 4c)
# Protocol: as §1, §3
# [3] = test system: mice (adult female Swiss); assay: automated von Frey test (tactile sensitivity); assay type: in vivo, mouse
# [4] = test system: mice (adult female Swiss); assay: hot-plate test (heat sensitivity); assay type: in vivo, mouse; details: 55.0°C
# From the text: (§4) The study was experimentally designed to have group sizes of at least six animals per group, with intravenous injection as an exclusion criterion. In addition, randomization and blinding (one of the two experimenters being blind to treatment group) were undertaken in all animal experiments. […] Prior to testing, each mouse underwent a 20-min acclimation to the experimental laboratory environment (in its home cage).
# Each mouse, injected or not with PBS +0.1% BSA or toxin solution in the right hind limb, was put on a hot-plate (HCP No. 35150, Ugo Basile, Italy) set at the temperature of 55.0°C ± 0.2°C 15–30 min after limb injection. The measured parameter as the first pain-related manifestation was the latency (in seconds) for the animal to shake the right hind limb ([Deuis et al., 2017]). This latency, considered as a painful response to heat, was recorded simultaneously by two observers (one being blind to treatment group) with a timer integrated into the set-up. A maximal cut-off time of 30 s was used to prevent tissue damage.
# [5] = test system: mice (adult female Swiss); details: mouse, in vivo
# From the text: as §4
# [6] = test system: TTX-R Na^+ currents from adult mouse DRG neurons
# C57Bl6 mice = details: mouse, in vivo, ip
# ryanodine receptor = details: ref Ronjat et al., 2016; cited from earlier work
# Nav1.7 = details: cited from earlier work
# N-type calcium channels = details: cited from earlier work
compound,measurement,setting,value
"NC1=N[C@H](O)[C@H]2[C@H]3O[C@]4(O)O[C@@H]([C@@H](O)[C@@]2(N1)[C@@H]4O)[C@]3(O)CO [TTX, tetrodotoxin, reference compound]",Na+ current remaining (% of initial peak amplitude),[1],64.8% ± 4.2
same,Na+ current remaining (% of initial peak amplitude),[2],9.5% ± 1.7
CC[C@H](C)[C@H](NC(=O)[C@H](CCC(N)=O)NC(=O)[C@H](Cc1ccc(O)cc1)NC(=O)[C@H](CCCCN)NC(=O)[C@@H]1CSSC[C@@H]2NC(=O)[C@H](CCC(N)=O)NC(=O)[C@H](CC(=O)O)NC(=O)[C@H](CC(N)=O)NC(=O)[C@H](CO)NC(=O)[C@@H]3CCCN3C(=O)[C@H](CC(N)=O)NC(=O)[C@@H]3CSSC[C@H](NC(=O)[C@H](C(C)C)NC(=O)[C@H](CC(C)C)NC(=O)[C@H](CCCCN)NC(=O)[C@H](CO)NC(=O)[C@H](CO)NC(=O)[C@H](CCCCN)NC(=O)[C@H](CSSC[C@H](NC(=O)[C@@H](N)CCC(=O)O)C(=O)N[C@@H](CC(C)C)C(=O)N[C@@H](CCC(=O)O)C(=O)N[C@@H]([C@@H](C)CC)C(=O)N[C@@H](Cc4ccccc4)C(=O)N[C@@H](CCCCN)C(=O)N[C@@H](C)C(=O)N3)NC2=O)C(=O)N[C@@H](CO)C(=O)N[C@@H](CCCNC(=N)N)C(=O)N[C@@H](CCCCN)C(=O)N[C@@H]([C@@H](C)O)C(=O)N[C@@H](CCCNC(=N)N)C(=O)N[C@@H](Cc2c[nH]c3ccccc23)C(=O)N1)C(=O)NCC(=O)O [sHwTx-IV GCOOH],fold less potent than HwTx-IV on hNav1.7,hNav1.7,16 fold
same,nH (Hill number),hNav1.7; hNav1.7 (Figure 4c),−0.98
same,nH (Hill number),hNav1.7; hNav1.7 in CHO cells (Figure 4a),−0.97
same,nH (Hill number),mNav1.7,−0.90
same,inhibition of hNav1.4,hNav1.4,not affected
same,inhibition of hNav1.5,hNav1.5,"no inhibition up to 3,300 nM"
same,force intensity for hind limb withdrawal,"[3]; 98 nmol/kg intraplantar, 15–30 min, versus vehicle, P < 0.010",significantly (P < 0.010) increased
same,"dose efficiency difference between both peptides, von Frey",[3]; 14–98 nmol/kg intraplantar,no dose efficiency difference could be observed between both peptides
same,reaction time to heat (latency to shake hind limb),"[4]; 10–98 nmol/kg intraplantar, 15–30 min, versus vehicle, P < 0.050",significant (P < 0.050) increase in the reaction time to heat
same,"threshold analgesic dose, hot-plate",[4]; intraplantar,10 nmol/kg
same,death,[5],absence of death
same,toxicity (behaviour) after intraplantar injection,[5],no abnormal mice behavior
same,IC50,[2],14 nM
same,TTX-S peak current amplitude after wash-out,[2],−3.2 ± 0.7 nA
same,"TimeA (10% to 90% current increase, activation)",[2],0.31 ± 0.06 ms and 0.27 ± 0.07 ms and 0.28 ± 0.11 ms
same,"TimeI (90% to 10% current decrease, inactivation)",[2],6.93 ± 1.23 ms and 6.66 ± 1.42 ms and 6.59 ± 1.24 ms
same,effect on activation or inactivation kinetics,[2],did not alter activation or inactivation kinetics
same,fold more potent on TTX-S DRG currents than on mNav1.7 currents,[2],11.8 fold
same,fold more potent than HwTx-IV on mouse DRG TTX-S Na+ currents,[2],9.5 fold
same,nH (Hill number),[2],0.7
same,reversibility of effect on TTX-S current,[2],reversible
same,slope (kG) of conductance-voltage curves,[2],"slight, but significant (P < 0.002), changes"
same,VI50% (voltage of 50% inactivation),"[2]; 13 nM, n = 4",−82 ± 2 mV
same,VA50% (voltage of 50% maximal conductance),"[2]; 13 nM, n = 5",−32 ± 1 mV
same,block of TTX-S Na+ currents,[2]; 130 nM,potently blocked
same,time to stationary TTX-S peak current block,"[2]; 130 nM, n = 8",2.6 ± 0.6 min
same,IC50,[6],2000 nM
same,nH (Hill number),[6],0.8
same,block of TTX-R Na+ currents,[6]; 130 nM,largely sparring
same,animals with signs of hindlimb weakness,C57Bl6 mice,Seven out of 10
same,death,C57Bl6 mice,none of the animals died
same,distance travelled,C57Bl6 mice,unaffected
same,duration of activity,C57Bl6 mice,unaffected
same,"number of movements, 60 min",C57Bl6 mice,accentuated 60 min later
same,"number of movements, first 10 min",C57Bl6 mice,reduction in the number of movements
same,rearing events,C57Bl6 mice,reduced
same,signs of suffering,C57Bl6 mice,no signs of suffering
"maurocalcin: a scorpion venom peptide (GDCLPHLKLCKENKDCCSKKCKRRGTNIEKRCR; UniProt P60254 1-33, looked up)",effect of phosphorylation by protein kinase A,ryanodine receptor,converts the peptide from an allosteric activator to a ryanodine receptor blocker
"protoxin-II: protoxin-II, Nav1.7 selective to a large extent [reference compound]",inhibition of Na+ current,[2]; 0.01 µM,80%
same,Nav1.7 selectivity,Nav1.7,Nav1.7 selective to a large extent
ω-conotoxin MVIIA,fold better affinity than non-amidated ω-conotoxin MVIIA-Gly-COOH,N-type calcium channels,10 fold
